Results from patent US12030896B2, “PIKfyve inhibitors” (Mayo Foundation for Medical Education and Research, priority 2018, dated 2024).
“And” between values parts separate entries of the source, which are not always exact repeats. Identical values can stand only once.

Experiment: Pharmacokinetic study of Example 1 in mouse (IV, IP, PO)
Format: in vivo, Male C57BL/6 Mouse
Settings: for concentration at 0.25 h / concentration at 0.5 h / concentration at 1 h / concentration at 2 h / concentration at 4 h: male, C57BL/6, mouse, plasma, ip
Experimental: Species: Male C57BL/6 Mouse, fasted.
PK/PD testing of the compound was performed in mice, after IP, IV, or oral administration.

[1] = IP 30 mg/kg, individual mice M4-M6, 30 mg/kg
[2] = IV 5 mg/kg, individual mice M1-M3, 5 mg/kg
[3] = PO 30 mg/kg, individual mice M7-M9, 30 mg/kg

For Cc1ccc(Nc2nc(N/N=C/c3c[nH]c4ccccc34)nc(N3CCOCC3)n2)cc1 [Example 1, (E)-4-(2-((1H-indol-3-yl)methylene)hydrazinyl)-6-morpholino-N-(p-tolyl)-1,3,5-triazin-2-amine], the plasma concentration (IP 30 mg/kg, 0.250 h, individual mice M4-M6, 30 mg/kg) was 299 ng/mL and 314 ng/mL, the plasma concentration (IP 30 mg/kg, 0.500 h, individual mice M4-M6, 30 mg/kg) was 430 ng/mL and 376 ng/mL and the plasma concentration (IP 30 mg/kg, 1.00 h, individual mice M4-M6, 30 mg/kg) was 636 ng/mL and 492 ng/mL. For the same compound, the plasma concentration (IP 30 mg/kg, 2.00 h, individual mice M4-M6, 30 mg/kg) was 441 ng/mL and 523 ng/mL, the plasma concentration (IP 30 mg/kg, 4.00 h, individual mice M4-M6, 30 mg/kg) was 232 ng/mL and 158 ng/mL and the plasma concentration (IP 30 mg/kg, 6.00 h, individual mice M4-M6, 30 mg/kg) was 115 ng/mL and 103 ng/mL. The plasma concentration (IP 30 mg/kg, 24.0 h, individual mice M4-M6, 30 mg/kg) was 34.1 ng/mL and 40.7 ng/mL, the Tlast (IP 30 mg/kg, individual mice M4-M6) was 24.0 h and the AUC0-last [1] was 3110 ng·h/mL and 2925 ng·h/mL. The AUC(0-inf) [1] was 3512 ng·h/mL and 3588 ng·h/mL, the AUCExtra [1] was 18.0% and 11.5% and 18.5% and the AUMCExtra [1] was 54.7% and 41.4% and 56.7%. For the same compound, the Cmax [1] was 636 ng/mL and 523 ng/mL, the MRT0-inf [1] was 9.91 h and 13.1 h and the MRT0-last [1] was 6.56 h and 6.98 h. The T1/2 [1] was 8.19 h and 11.3 h, the Tmax [1] was 2.00 h and the AUCExtra (IP 30 mg/kg, mean) was 16.0%. It also gave an AUMCExtra (IP 30 mg/kg, mean) of 50.9%, a Tlast (IP 30 mg/kg, mean) of 24.0 h and a peak concentration (IP, single 30 mg/kg dose) of 534 ng/mL. The plasma concentration (IV 5 mg/kg, 5 min, individual mice M1-M3, 5 mg/kg) was 1500 ng/mL and 2090 ng/mL, the plasma concentration (IV 5 mg/kg, 0.250 h, individual mice M1-M3, 5 mg/kg) was 1270 ng/mL and 1530 ng/mL and the plasma concentration (IV 5 mg/kg, 0.500 h, individual mice M1-M3, 5 mg/kg) was 1060 ng/mL and 1130 ng/mL. For the same compound, the plasma concentration (IV 5 mg/kg, 1.00 h, individual mice M1-M3, 5 mg/kg) was 591 ng/mL and 678 ng/mL, the plasma concentration (IV 5 mg/kg, 2.00 h, individual mice M1-M3, 5 mg/kg) was 169 ng/mL and 204 ng/mL and the plasma concentration (IV 5 mg/kg, 4.00 h, individual mice M1-M3, 5 mg/kg) was 16.7 ng/mL and 16.4 ng/mL. The plasma concentration (IV 5 mg/kg, 6.00 h, individual mice M1-M3, 5 mg/kg) was 4.04 ng/mL and 3.44 ng/mL, the plasma concentration (IV 5 mg/kg, 24.0 h, individual mice M1-M3) was “BQL” and the Tlast (IV 5 mg/kg, individual mice M1-M3) was 6.00 h. For the same compound, the AUC0-last [2] was 1539 ng·h/mL and 1820 ng·h/mL, the AUC(0-inf) [2] was 1543 ng·h/mL and 1823 ng·h/mL and the AUCExtra [2] was 0.381% and 0.251% and 0.171%. The AUMCExtra [2] was 2.79% and 1.96% and 1.39%, the C0 [2] was 1630 ng/mL and 2442 ng/mL and the Cl [2] was 54.0 mL/min/kg and 45.7 mL/min/kg. The MRT0-inf [2] was 0.890 h and 0.847 h, the MRT0-last [2] was 0.875 h and 0.836 h and the T1/2 [2] was 0.665 h and 0.628 h. The Vdss [2] was 2.89 L/kg and 2.32 L/kg, the AUCExtra (IV 5 mg/kg, mean) was 0.268% and the AUMCExtra (IV 5 mg/kg, mean) was 2.05%. The Tlast (IV 5 mg/kg, mean) was 6.00 h, the plasma concentration (PO 30 mg/kg, 0.250 h, individual mice M7-M9, 30 mg/kg) was 59.6 ng/mL and 65.0 ng/mL and the plasma concentration (PO 30 mg/kg, 0.500 h, individual mice M7-M9, 30 mg/kg) was 84.2 ng/mL and 115 ng/mL. The plasma concentration (PO 30 mg/kg, 1.00 h, individual mice M7-M9, 30 mg/kg) was 145 ng/mL and 55.8 ng/mL and 75.3 ng/mL, the plasma concentration (PO 30 mg/kg, 2.00 h, individual mice M7-M9, 30 mg/kg) was 58.6 ng/mL and 16.2 ng/mL and 16.7 ng/mL and the plasma concentration (PO 30 mg/kg, 4.00 h, individual mice M7-M9, 30 mg/kg) was 12.7 ng/mL and 5.98 ng/mL and 3.78 ng/mL. For the same compound, the plasma concentration (PO 30 mg/kg, 6.00 h, individual mice M7-M9, 30 mg/kg) was 11.3 ng/mL and 7.80 ng/mL, the plasma concentration (PO 30 mg/kg, 24.0 h, individual mice M7-M9) was “BQL” and the Tlast (PO 30 mg/kg, individual mice M7-M9) was 6.00 h. For the same compound, the AUC0-last [3] was 291 ng·h/mL and 129 ng·h/mL and 145 ng·h/mL, the AUC(0-inf) [3] was 158 ng·h/mL and 162 ng·h/mL and the AUCExtra [3] was 6.68% and 18.1% and 10.7%. The AUMCExtra [3] was 25.1% and 52.3% and 41.3%, the Cmax [3] was 84.2 ng/mL and 115 ng/mL and the MRT0-inf [3] was 2.96 h and 2.14 h. The MRT0-last [3] was 1.72 h and 1.41 h, the T1/2 [3] was 1.76 h and 1.55 h and the AUCExtra (PO 30 mg/kg, mean) was 11.9%. For the same compound, the AUMCExtra (PO 30 mg/kg, mean) was 39.6%, the Tlast (PO 30 mg/kg, mean) was 6.00 h and the concentration at 0.25 h (30 mg/kg, IP 30 mg/kg, 0.250 h, individual mice M4-M6) was 242 ng/mL. For the same compound, the concentration at 0.25 h (30 mg/kg, IP 30 mg/kg, 0.250 h, mean) was 285 ng/mL, the concentration at 0.5 h (30 mg/kg, IP 30 mg/kg, 0.500 h, individual mice M4-M6) was 381 ng/mL and the concentration at 0.5 h (30 mg/kg, IP 30 mg/kg, 0.500 h, mean) was 396 ng/mL. It also gave a concentration at 1 h (30 mg/kg, IP 30 mg/kg, 1.00 h, individual mice M4-M6) of 443 ng/mL, a concentration at 1 h (30 mg/kg, IP 30 mg/kg, 1.00 h, mean) of 524 ng/mL and a concentration at 2 h (30 mg/kg, IP 30 mg/kg, 2.00 h, individual mice M4-M6) of 367 ng/mL. The concentration at 2 h (30 mg/kg, IP 30 mg/kg, 2.00 h, mean) was 444 ng/mL, the concentration at 4 h (30 mg/kg, IP 30 mg/kg, 4.00 h, individual mice M4-M6) was 136 ng/mL and the concentration at 4 h (30 mg/kg, IP 30 mg/kg, 4.00 h, mean) was 175 ng/mL.
